# What was measured:
# [1] = molecular target: T1, PKAC-alpha (Homo sapiens, UniProt P17612); assay: KINOMEscan scanEDGE; format: binding; conditions: 20 uM
# T1 construct: purchased Eurofins DiscoverX (KINOMEscan; SAFETYscan E/IC50 ELECT)
# [2] = test system: mouse extensor digitorum longus (EDL) muscle; assay: Ex vivo isometric force, mouse EDL; conditions: WT mouse EDL, 10 μM
# Description: Isometric force was measured ex vivo in mouse EDL and soleus muscle. EDL muscle eccentric injury was based on published protocols ([30]), with degree of lengthening and stimulation modified to yield a uniform drop in mdx isometric and peak force over 10 contractions. After isolation, muscle was mounted via 5-0 suture to a combination servomotor/force transducer (300C-LR, Aurora) between 2 electrodes connected to a stimulator (701C, Aurora) in Ringers solution at 27°C with continuously infused CO2/O2 gas mixture. Experiments were recorded with custom MATLAB software via a National Instruments PCIe-6321 board and 2090A BNC connector. Muscles were preincubated for 60 minutes with DMSO (final 0.1%)/compound before 10 eccentric contractions, 1 minute apart, with 100 milliseconds of isometric stimulation at 100 Hz and active lengthening of 0.1 L0 at a rate of 2 L0/s. After lengthening, muscles were held at 1.1 L0 with stimulation for 100 milliseconds (Supplemental Figure 2A).
# [3] = molecular target: T2, BRAF(V600E) (Homo sapiens, UniProt P15056, V600E); assay: KINOMEscan scanEDGE; format: binding; conditions: 20 uM
# T2 construct: purchased Eurofins DiscoverX (KINOMEscan; SAFETYscan E/IC50 ELECT)
# T2 sequence (P15056 whole entry V600E): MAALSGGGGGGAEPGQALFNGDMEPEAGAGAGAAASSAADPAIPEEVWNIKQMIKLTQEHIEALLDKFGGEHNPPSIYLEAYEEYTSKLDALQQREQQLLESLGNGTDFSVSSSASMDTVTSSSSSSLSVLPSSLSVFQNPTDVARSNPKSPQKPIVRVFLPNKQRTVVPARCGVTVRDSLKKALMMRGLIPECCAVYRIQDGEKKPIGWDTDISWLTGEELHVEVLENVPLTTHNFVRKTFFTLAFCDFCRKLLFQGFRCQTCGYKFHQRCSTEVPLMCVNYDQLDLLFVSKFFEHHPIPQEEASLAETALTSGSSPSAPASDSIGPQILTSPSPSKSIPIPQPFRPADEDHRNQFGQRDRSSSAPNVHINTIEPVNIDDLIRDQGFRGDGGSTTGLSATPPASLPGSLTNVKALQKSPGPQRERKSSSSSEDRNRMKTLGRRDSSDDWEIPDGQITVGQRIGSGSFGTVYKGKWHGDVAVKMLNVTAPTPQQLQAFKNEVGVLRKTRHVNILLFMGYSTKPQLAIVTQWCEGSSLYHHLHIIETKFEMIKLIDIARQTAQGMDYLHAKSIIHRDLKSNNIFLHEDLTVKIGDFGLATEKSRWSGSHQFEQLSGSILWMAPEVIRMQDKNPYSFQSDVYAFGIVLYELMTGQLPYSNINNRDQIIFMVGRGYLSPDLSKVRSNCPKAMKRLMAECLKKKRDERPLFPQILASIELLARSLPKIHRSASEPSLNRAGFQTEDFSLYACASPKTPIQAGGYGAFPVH
# [4] = test system: healthy mice, TA muscle; assay: Cardiotoxin sterile muscle injury repair; format: in vivo, mouse; conditions: day 8 post injury
# Description: For sterile muscle injury, mice were anesthetized with isoflurane and 50 μL cardiotoxin (12 × 10^–6 M, 217503, Millipore) injected in the TA muscle. Muscles 8 days after injury were snap frozen in nitrogen-chilled isopentane. 8 μm cryosections were cut and stained with H&E. For each analysis, more than 10 slides (per condition/group) containing 6 muscle sections/sample were used, and myofibers in the injured area were counted and measured with a Mirax digital scanner and HALO software ([68]). For adult mouse studies, muscles were fixed in 10% formalin and embedded in paraffin for sectioning. Laminin staining (RB-082, Thermo Fisher Scientific) was used to outline fibers, and picrosirius red was used for collagen accumulation. Image analysis was performed using ImarisX64 software (Bitplane AG), and fiber sizing was calculated using minimal Feret’s diameter ([69]). For after weaning juvenile mouse studies, cryosections from soleus muscles were mounted in ProLong antifade mountant with DAPI (Thermo Fisher Scientific). Fiber type, size, and central nucleation were quantified with analysis via SMASH ([70]) and ImageJ (NIH). Antibodies used were mouse anti-MHC2A (1:50, SC-71, Developmental Studies Hybridoma Bank) and mouse anti-eMHC (1:10, BF-45, Developmental Studies Hybridoma Bank).
# [5] = molecular target: T3, ERBB2 (Homo sapiens, UniProt P04626); assay: KINOMEscan scanEDGE; format: binding; conditions: 20 uM
# T3 construct: purchased Eurofins DiscoverX (KINOMEscan; SAFETYscan E/IC50 ELECT)
# T3 sequence (P04626 23-1255): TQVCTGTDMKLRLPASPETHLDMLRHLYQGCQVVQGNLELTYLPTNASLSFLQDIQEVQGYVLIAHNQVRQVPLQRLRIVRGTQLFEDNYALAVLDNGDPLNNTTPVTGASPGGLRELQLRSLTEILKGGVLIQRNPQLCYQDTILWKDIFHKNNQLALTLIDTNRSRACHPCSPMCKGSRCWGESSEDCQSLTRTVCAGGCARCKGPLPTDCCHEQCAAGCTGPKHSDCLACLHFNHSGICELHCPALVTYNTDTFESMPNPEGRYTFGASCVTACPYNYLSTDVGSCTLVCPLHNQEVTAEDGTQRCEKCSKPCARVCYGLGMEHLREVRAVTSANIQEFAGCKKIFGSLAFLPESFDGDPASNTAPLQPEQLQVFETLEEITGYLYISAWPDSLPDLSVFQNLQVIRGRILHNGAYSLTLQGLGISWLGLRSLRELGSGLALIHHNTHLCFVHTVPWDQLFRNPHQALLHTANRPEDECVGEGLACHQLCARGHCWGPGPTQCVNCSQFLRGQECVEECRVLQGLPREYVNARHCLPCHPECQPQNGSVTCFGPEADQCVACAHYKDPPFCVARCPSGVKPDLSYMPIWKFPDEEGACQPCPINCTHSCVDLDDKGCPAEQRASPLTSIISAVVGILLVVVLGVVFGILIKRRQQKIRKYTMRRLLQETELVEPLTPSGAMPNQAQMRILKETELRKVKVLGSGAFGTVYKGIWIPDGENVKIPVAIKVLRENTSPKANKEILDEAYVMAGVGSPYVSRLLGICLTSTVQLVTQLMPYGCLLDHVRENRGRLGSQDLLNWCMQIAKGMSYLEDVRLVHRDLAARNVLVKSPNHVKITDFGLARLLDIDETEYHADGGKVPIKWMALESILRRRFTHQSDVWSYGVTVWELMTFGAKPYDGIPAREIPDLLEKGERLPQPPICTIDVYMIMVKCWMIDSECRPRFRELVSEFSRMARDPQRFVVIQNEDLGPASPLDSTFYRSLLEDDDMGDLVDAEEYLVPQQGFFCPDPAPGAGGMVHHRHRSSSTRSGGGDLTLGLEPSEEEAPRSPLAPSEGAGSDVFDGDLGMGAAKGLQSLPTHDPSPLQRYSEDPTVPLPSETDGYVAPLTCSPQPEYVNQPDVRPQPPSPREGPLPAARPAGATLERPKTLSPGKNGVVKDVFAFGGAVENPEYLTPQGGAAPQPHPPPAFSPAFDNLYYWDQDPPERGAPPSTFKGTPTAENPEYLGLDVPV
# [6] = molecular target: T4, RET (Homo sapiens, UniProt P07949); assay: KINOMEscan scanEDGE; format: binding; conditions: 20 uM
# T4 construct: purchased Eurofins DiscoverX (KINOMEscan; SAFETYscan E/IC50 ELECT)
# T4 sequence (P07949 29-1114): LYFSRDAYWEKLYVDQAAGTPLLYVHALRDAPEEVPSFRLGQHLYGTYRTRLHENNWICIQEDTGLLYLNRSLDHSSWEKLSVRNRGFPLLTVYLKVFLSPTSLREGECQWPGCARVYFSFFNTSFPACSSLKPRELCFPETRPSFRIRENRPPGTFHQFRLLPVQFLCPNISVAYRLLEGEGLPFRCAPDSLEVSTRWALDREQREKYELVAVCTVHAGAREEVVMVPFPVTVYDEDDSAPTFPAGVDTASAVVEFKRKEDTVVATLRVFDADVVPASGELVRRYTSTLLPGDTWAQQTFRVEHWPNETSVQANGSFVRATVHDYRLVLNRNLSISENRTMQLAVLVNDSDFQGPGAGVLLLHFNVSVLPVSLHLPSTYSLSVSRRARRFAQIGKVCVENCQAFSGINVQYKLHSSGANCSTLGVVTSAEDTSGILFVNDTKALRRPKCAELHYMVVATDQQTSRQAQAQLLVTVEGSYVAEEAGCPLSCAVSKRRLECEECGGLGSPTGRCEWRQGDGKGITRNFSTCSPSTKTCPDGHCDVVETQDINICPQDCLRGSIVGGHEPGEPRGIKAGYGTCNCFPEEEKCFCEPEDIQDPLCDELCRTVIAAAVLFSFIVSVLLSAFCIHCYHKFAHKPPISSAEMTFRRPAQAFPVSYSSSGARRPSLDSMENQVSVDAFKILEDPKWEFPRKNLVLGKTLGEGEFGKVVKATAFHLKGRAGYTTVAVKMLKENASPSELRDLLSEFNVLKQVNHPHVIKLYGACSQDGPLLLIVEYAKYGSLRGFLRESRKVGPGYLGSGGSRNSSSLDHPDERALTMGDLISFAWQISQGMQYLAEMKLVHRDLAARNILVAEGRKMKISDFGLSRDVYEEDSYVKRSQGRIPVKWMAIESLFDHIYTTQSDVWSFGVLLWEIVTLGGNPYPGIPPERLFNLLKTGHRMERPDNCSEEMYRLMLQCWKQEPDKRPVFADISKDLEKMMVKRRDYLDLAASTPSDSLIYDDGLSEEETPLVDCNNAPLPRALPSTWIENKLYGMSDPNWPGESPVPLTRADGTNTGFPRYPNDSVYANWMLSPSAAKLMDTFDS
# [7] = molecular target: T5, smooth muscle myosin S1 isolated from chicken gizzard (Gallus gallus, UniProt P10587); assay: Actin-activated myosin S1 ATPase, smooth muscle; format: biochemical
# T5 construct: purchased Cytoskeleton Inc; host or cells: chicken gizzard
# T5 sequence (P10587 2-849 limits assumed): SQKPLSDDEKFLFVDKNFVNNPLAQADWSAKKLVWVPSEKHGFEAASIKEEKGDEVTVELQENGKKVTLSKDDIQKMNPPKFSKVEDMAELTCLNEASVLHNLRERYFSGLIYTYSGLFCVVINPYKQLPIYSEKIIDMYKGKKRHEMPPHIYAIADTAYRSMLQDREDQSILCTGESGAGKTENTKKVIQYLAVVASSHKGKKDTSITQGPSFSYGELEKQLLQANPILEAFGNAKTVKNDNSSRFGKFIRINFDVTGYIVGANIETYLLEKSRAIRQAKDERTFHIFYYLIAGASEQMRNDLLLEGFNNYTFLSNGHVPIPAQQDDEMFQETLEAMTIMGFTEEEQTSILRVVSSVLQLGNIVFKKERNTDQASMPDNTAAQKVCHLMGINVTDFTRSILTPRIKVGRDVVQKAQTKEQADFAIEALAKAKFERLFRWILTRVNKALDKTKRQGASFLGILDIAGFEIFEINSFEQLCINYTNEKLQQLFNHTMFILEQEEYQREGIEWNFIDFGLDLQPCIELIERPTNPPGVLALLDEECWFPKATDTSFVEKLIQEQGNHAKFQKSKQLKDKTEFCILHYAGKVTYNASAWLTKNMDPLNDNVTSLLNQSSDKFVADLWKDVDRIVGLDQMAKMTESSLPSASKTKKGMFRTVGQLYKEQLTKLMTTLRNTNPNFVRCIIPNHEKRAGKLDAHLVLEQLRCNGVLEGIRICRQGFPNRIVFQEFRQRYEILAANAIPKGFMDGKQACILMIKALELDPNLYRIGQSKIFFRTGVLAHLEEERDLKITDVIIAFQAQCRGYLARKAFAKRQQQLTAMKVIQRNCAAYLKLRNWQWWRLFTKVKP
# T5 sequence (P02607 2-151 partner limits assumed): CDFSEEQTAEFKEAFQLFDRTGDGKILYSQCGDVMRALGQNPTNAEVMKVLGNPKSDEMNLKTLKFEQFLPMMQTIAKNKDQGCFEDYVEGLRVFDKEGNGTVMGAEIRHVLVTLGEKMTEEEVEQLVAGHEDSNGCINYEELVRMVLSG
# Description: Smooth muscle chicken gizzard S1 was purchased from Cytoskeleton Inc. Other myosin S1 was prepared via published protocols ([21]). Briefly, fresh rabbit psoas and frozen porcine ventricular muscle (Pel-freez) were extracted in 0.3 M KCl, 0.15 M KH2PO4, 1 mM EGTA, 1 mM ATP, 1 mM DTT, pH 6.5, at 4°C. Full-length myosin was purified from each extract via low-ionic precipitations with final precipitation into PM12 buffer (12 mM PIPES, pH 7.0, 2 mM MgCl2). Purified myosin was resuspended in PIPES/EDTA buffer (20 mM PIPES, pH 6.8, 10 mM EDTA, 1 mM DTT) and reacted with 0.2 mg/mL α-chymotrypsin for 30 minutes at room temperature. Proteolysis was quenched with PMSF (final concentration 100 μM), and the reaction was centrifuged for 45 minutes at 230,000g. S1 fragment in the supernatant was dialyzed into PM12 with 0.02% sodium azide and clarified by centrifugation. Sucrose was added to 10% w/v and flash-frozen in liquid N2 and stored at –80°C. […]
# A lactate dehydrogenase/pyruvate kinase enzyme-coupled system ([62]) was used to monitor ATP hydrolysis rates in various muscle preparations. […] A multidrop cassette (Thermo Fisher Scientific) dispensed 10 μL of the coupled enzyme system, calcium, and myofibrils to 10 μL ATP, NADH and PEP to initiate the reaction prior to reading on a plate reader (Envision, Perkin Elmer) for 10 minutes per plate at room temperature. […]
# [8] = molecular target: T6, FLT3 (Homo sapiens, UniProt P36888); assay: KINOMEscan scanEDGE; format: binding; conditions: 20 uM
# T6 construct: purchased Eurofins DiscoverX (KINOMEscan; SAFETYscan E/IC50 ELECT)
# T6 sequence (P36888 27-993): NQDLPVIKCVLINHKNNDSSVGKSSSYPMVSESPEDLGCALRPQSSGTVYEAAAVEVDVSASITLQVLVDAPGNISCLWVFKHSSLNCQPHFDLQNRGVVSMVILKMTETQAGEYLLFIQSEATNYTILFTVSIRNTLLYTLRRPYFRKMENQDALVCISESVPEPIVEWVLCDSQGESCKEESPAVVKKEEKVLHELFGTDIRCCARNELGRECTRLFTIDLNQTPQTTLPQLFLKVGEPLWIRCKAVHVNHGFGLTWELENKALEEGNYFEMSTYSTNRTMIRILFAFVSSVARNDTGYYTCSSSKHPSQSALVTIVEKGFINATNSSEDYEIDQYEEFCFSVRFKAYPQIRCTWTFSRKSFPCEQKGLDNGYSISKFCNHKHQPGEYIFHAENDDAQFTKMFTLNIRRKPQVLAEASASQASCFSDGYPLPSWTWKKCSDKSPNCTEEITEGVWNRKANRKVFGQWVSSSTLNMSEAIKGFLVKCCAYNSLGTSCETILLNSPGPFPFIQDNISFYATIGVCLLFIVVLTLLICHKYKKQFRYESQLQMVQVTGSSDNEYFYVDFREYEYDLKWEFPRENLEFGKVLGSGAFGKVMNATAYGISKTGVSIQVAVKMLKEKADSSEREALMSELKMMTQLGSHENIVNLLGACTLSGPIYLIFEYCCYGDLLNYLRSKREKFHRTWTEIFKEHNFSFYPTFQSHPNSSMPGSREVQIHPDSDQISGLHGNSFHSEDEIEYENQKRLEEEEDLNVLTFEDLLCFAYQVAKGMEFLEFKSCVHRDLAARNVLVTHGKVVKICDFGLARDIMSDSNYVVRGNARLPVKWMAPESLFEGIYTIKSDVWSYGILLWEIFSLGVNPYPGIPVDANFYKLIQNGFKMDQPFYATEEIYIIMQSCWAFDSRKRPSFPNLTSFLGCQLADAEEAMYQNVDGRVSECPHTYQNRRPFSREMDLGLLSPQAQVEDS
# [9] = test system: fast rabbit psoas muscle fibers; assay: Skinned fiber force, rabbit psoas; conditions: Oryctolagus cuniculus, maximal force at pCa 4.5, read-out: IC50, force in single skinned fibers
# Description: Measurement of isometric force in skinned fibers from rabbit psoas, rat soleus, and rat cardiac trabeculae were performed as described previously ([65]) with an 802D fiber system (Aurora Scientific). Muscle bundles were thawed from –80°C and placed in relaxing solution. Single fibers were transferred to the testing apparatus with steel pins connected to a force transducer and motor (model 403A and 322C, Aurora Scientific), and collodion glue was applied. Temperature was set to 15°C for skeletal fibers and 30°C for rat cardiac trabeculae. The wells of the 802D were filled with different ratios of relaxing and activating pCa solutions as detailed previously ([65]). All control solutions contained 1% final DMSO. Traces were compared between control and compound runs to evaluate isometric force and calcium sensitivity.
smiles,measurement,setting,value
O=c1ccc(-c2cnc(OCC(F)(F)F)nc2)nn1Cc1cncc(F)c1 [EDG-5506],"binding, % of control",[1],100 % of control
same,ex vivo force inhibition,[2],completely inhibiting force
same,"binding, % of control",[3],93 % of control
same,muscle repair after cardiotoxin injury,[4],did not interfere with muscle repair
same,"binding, % of control",[5],76 % of control
same,"binding, % of control",[6],52 % of control
same,IC50,[7],> 100000 nM
same,"binding, % of control",[8],89 % of control
same,IC50,[9],700 nM
